# Measured values taken from patent US11117900B2 (Vertex Pharmaceuticals Incorporated, priority 2012, dated 2021).
# Test system: HCT116 colorectal cancer cells
# Assay: Cisplatin sensitization assay (96 h MTS cell viability);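 further: compound concentration needed to lower the IC50 of Cisplatin alone by a set fold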
# Type: cell-based
# Details: Cisplatin sensitization value
# Procedure, shortened: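 The MTS viability read, after 1 h with reagent, followed 96 h of co-treatment at 37° C. in 5% CO2. Both compound and cisplatin were titrated 2-fold from a 10 μM top final concentration in a complete concentration matrix on HCT116 cells. Scores +++/++/+ reflect cisplatin sensitization value ranges.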
row,Structure (SMILES),Cisplatin Sensitization Assay
1,"CN1CCC(Oc2ccncc2NC(=O)c2c(N)nn3cc(F)cnc23)CC1 [I-O-12, 2-amino-6-fluoro-N-(4-((1-methylpiperidin-4-yl)oxy)pyridin-3-yl)pyrazolo[1,5-a]pyrimidine-3-carboxamide]",+++ (Compounds with a Cisplatin sensitization value of <0.02 μM are marked with “+++.”)
2,"COC(=O)[C@H]1CC[C@H](Oc2ccncc2NC(=O)c2c(N)nn3cc(F)cnc23)CC1 [I-O-13, (1r,4r)-methyl 4-((3-(2-amino-6-fluoropyrazolo[1,5-a]pyrimidine-3-carboxamido)pyridin-4-yl)oxy)cyclohexanecarboxylate]",+++ (Compounds with a Cisplatin sensitization value of <0.02 μM are marked with “+++.”)
3,"CCOc1ccncc1NC(=O)c1c(N)nn2cc(F)cnc12 [I-O-14, 2-amino-N-(4-ethoxypyridin-3-yl)-6-fluoropyrazolo[1,5-a]pyrimidine-3-carboxamide]",+++ (Compounds with a Cisplatin sensitization value of <0.02 μM are marked with “+++.”)
4,"Nc1nn2cc(F)cnc2c1C(=O)Nc1cnccc1O[C@H]1Cc2nccn2C1 [I-O-16, (S)-2-amino-N-(4-((6,7-dihydro-5H-pyrrolo[1,2-a]imidazol-6-yl)oxy)pyridin-3-yl)-6-fluoropyrazolo[1,5-a]pyrimidine-3-carboxamide]",+++ (Compounds with a Cisplatin sensitization value of <0.02 μM are marked with “+++.”)
5,"CN(C)C(=O)[C@H]1CC[C@@H](Oc2ccncc2NC(=O)c2c(N)nn3cc(F)cnc23)CC1 [I-O-17, 2-amino-N-(4-(((1s,4s)-4-(dimethylcarbamoyl)cyclohexyl)oxy)pyridin-3-yl)-6-fluoropyrazolo[1,5-a]pyrimidine-3-carboxamide]",+++ (Compounds with a Cisplatin sensitization value of <0.02 μM are marked with “+++.”)
6,"CN1CCN(C(=O)[C@H]2CC[C@@H](Oc3ccncc3NC(=O)c3c(N)nn4cc(F)cnc34)CC2)CC1 [I-O-19, 2-amino-6-fluoro-N-(4-(((1s,4s)-4-(4-methylpiperazine-1-carbonyl)cyclohexyl)oxy)pyridin-3-yl)pyrazolo[1,5-a]pyrimidine-3-carboxamide]",+++ (Compounds with a Cisplatin sensitization value of <0.02 μM are marked with “+++.”)
7,"CCC(C#N)c1cnc2c(C(=O)Nc3cnccc3OC)c(N)nn2c1 (centres unmarked) [I-O-20, 2-amino-6-(1-cyanopropyl)-N-(4-methoxypyridin-3-yl)pyrazolo[1,5-a]pyrimidine-3-carboxamide]",++ (Compounds with a Cisplatin sensitization value >0.02 μM but <0.2 μM are marked with “++.”)
8,"COc1ccncc1NC(=O)c1c(N)nn2cc(C(C)C#N)cnc12 (centres unmarked) [I-O-21, 2-amino-6-(1-cyanoethyl)-N-(4-methoxypyridin-3-yl)pyrazolo[1,5-a]pyrimidine-3-carboxamide]",++ (Compounds with a Cisplatin sensitization value >0.02 μM but <0.2 μM are marked with “++.”)
9,"CN1CCC(Oc2ccncc2NC(=O)c2c(N)nn3cc(CC#N)cnc23)CC1 [I-O-23, 2-amino-6-(cyanomethyl)-N-(4-((1-methylpiperidin-4-yl)oxy)pyridin-3-yl)pyrazolo[1,5-a]pyrimidine-3-carboxamide]",+++ (Compounds with a Cisplatin sensitization value of <0.02 μM are marked with “+++.”)
10,"CN(C)CCOc1ccncc1NC(=O)c1c(N)nn2cc(CC#N)cnc12 [I-O-24, 2-amino-6-(cyanomethyl)-N-(4-(2-(dimethylamino)ethoxy)pyridin-3-yl)pyrazolo[1,5-a]pyrimidine-3-carboxamide]",++ (Compounds with a Cisplatin sensitization value >0.02 μM but <0.2 μM are marked with “++.”)
11,"N#CCc1cnc2c(C(=O)Nc3cnccc3Oc3ccccc3)c(N)nn2c1 [I-O-25, 2-amino-6-(cyanomethyl)-N-(4-phenoxypyridin-3-yl)pyrazolo[1,5-a]pyrimidine-3-carboxamide]",+++ (Compounds with a Cisplatin sensitization value of <0.02 μM are marked with “+++.”)
12,"COc1ccncc1NC(=O)c1c(N)nn2cc(CC#N)cnc12 [I-O-26, 2-amino-6-(cyanomethyl)-N-(4-methoxypyridin-3-yl)pyrazolo[1,5-a]pyrimidine-3-carboxamide]",++ (Compounds with a Cisplatin sensitization value >0.02 μM but <0.2 μM are marked with “++.”)
13,"COc1cc(Cl)ncc1NC(=O)c1c(N)nn2cc(CC#N)cnc12 [I-O-27, 2-amino-N-(6-chloro-4-methoxypyridin-3-yl)-6-(cyanomethyl)pyrazolo[1,5-a]pyrimidine-3-carboxamide]",++ (Compounds with a Cisplatin sensitization value >0.02 μM but <0.2 μM are marked with “++.”)
14,"CCOc1ccncc1NC(=O)c1c(N)nn2cc(CC#N)cnc12 [I-O-28, 2-amino-6-(cyanomethyl)-N-(4-ethoxypyridin-3-yl)pyrazolo[1,5-a]pyrimidine-3-carboxamide]",+++ (Compounds with a Cisplatin sensitization value of <0.02 μM are marked with “+++.”)
15,"COCCOc1ccncc1NC(=O)c1c(N)nn2cc(CC#N)cnc12 [I-O-29, 2-amino-6-(cyanomethyl)-N-(4-(2-methoxyethoxy)pyridin-3-yl)pyrazolo[1,5-a]pyrimidine-3-carboxamide]",+++ (Compounds with a Cisplatin sensitization value of <0.02 μM are marked with “+++.”)
16,"N#CCc1cnc2c(C(=O)Nc3cnccc3OC3CCOCC3)c(N)nn2c1 [I-O-30, 2-amino-6-(cyanomethyl)-N-(4-((tetrahydro-2H-pyran-4-yl)oxy)pyridin-3-yl)pyrazolo[1,5-a]pyrimidine-3-carboxamide]",+++ (Compounds with a Cisplatin sensitization value of <0.02 μM are marked with “+++.”)
17,"N#CCc1cnc2c(C(=O)Nc3cnccc3O[C@@H]3CCOC3)c(N)nn2c1 [I-O-31, (R)-2-amino-6-(cyanomethyl)-N-(4-((tetrahydrofuran-3-yl)oxy)pyridin-3-yl)pyrazolo[1,5-a]pyrimidine-3-carboxamide]",+++ (Compounds with a Cisplatin sensitization value of <0.02 μM are marked with “+++.”)
18,"N#CCc1cnc2c(C(=O)Nc3cnccc3OCC3CC3)c(N)nn2c1 [I-O-32, 2-amino-6-(cyanomethyl)-N-(4-(cyclopropylmethoxy)pyridin-3-yl)pyrazolo[1,5-a]pyrimidine-3-carboxamide]",+++ (Compounds with a Cisplatin sensitization value of <0.02 μM are marked with “+++.”)
19,"N#CCc1cnc2c(C(=O)Nc3cnccc3OCCO)c(N)nn2c1 [I-O-33, 2-amino-6-(cyanomethyl)-N-(4-(2-hydroxyethoxy)pyridin-3-yl)pyrazolo[1,5-a]pyrimidine-3-carboxamide]",++ (Compounds with a Cisplatin sensitization value >0.02 μM but <0.2 μM are marked with “++.”)
20,"N#CCc1cnc2c(C(=O)Nc3cnccc3OCC(F)(F)F)c(N)nn2c1 [I-O-34, 2-amino-6-(cyanomethyl)-N-(4-(2,2,2-trifluoroethoxy)pyridin-3-yl)pyrazolo[1,5-a]pyrimidine-3-carboxamide]",++ (Compounds with a Cisplatin sensitization value >0.02 μM but <0.2 μM are marked with “++.”)
21,"CC(C)Oc1ccncc1NC(=O)c1c(N)nn2cc(CC#N)cnc12 [I-O-35, 2-amino-6-(cyanomethyl)-N-(4-isopropoxypyridin-3-yl)pyrazolo[1,5-a]pyrimidine-3-carboxamide]",+++ (Compounds with a Cisplatin sensitization value of <0.02 μM are marked with “+++.”)
22,"N#CCc1cnc2c(C(=O)Nc3cnccc3OC3CCC3)c(N)nn2c1 [I-O-36, 2-amino-6-(cyanomethyl)-N-(4-cyclobutoxypyridin-3-yl)pyrazolo[1,5-a]pyrimidine-3-carboxamide]",+++ (Compounds with a Cisplatin sensitization value of <0.02 μM are marked with “+++.”)
23,"N#CCc1cnc2c(C(=O)Nc3cnccc3OC3COC3)c(N)nn2c1 [I-O-38, 2-amino-6-(cyanomethyl)-N-(4-(oxetan-3-yloxy)pyridin-3-yl)pyrazolo[1,5-a]pyrimidine-3-carboxamide]",+++ (Compounds with a Cisplatin sensitization value of <0.02 μM are marked with “+++.”)
24,"N#CCc1cnc2c(C(=O)Nc3cnccc3OC3CCCCC3)c(N)nn2c1 [I-O-39, 2-amino-6-(cyanomethyl)-N-(4-(cyclohexyloxy)pyridin-3-yl)pyrazolo[1,5-a]pyrimidine-3-carboxamide]",+++ (Compounds with a Cisplatin sensitization value of <0.02 μM are marked with “+++.”)
25,"N#CCc1cnc2c(C(=O)Nc3cnccc3OCCCO)c(N)nn2c1 [I-O-40, 2-amino-6-(cyanomethyl)-N-(4-(3-hydroxypropoxy)pyridin-3-yl)pyrazolo[1,5-a]pyrimidine-3-carboxamide]",++ (Compounds with a Cisplatin sensitization value >0.02 μM but <0.2 μM are marked with “++.”)
26,"N#CCc1cnc2c(C(=O)Nc3cnccc3OC3CCCOC3)c(N)nn2c1 (centres unmarked) [I-O-41, 2-amino-6-(cyanomethyl)-N-(4-((tetrahydro-2H-pyran-3-yl)oxy)pyridin-3-yl)pyrazolo[1,5-a]pyrimidine-3-carboxamide]",+++ (Compounds with a Cisplatin sensitization value of <0.02 μM are marked with “+++.”)
27,"N#CCc1cnc2c(C(=O)Nc3cnccc3O[C@H]3CCOC3)c(N)nn2c1 [I-O-42, (S)-2-amino-6-(cyanomethyl)-N-(4-((tetrahydrofuran-3-yl)oxy)pyridin-3-yl)pyrazolo[1,5-a]pyrimidine-3-carboxamide]",+++ (Compounds with a Cisplatin sensitization value of <0.02 μM are marked with “+++.”)
28,"N#CCc1cnc2c(C(=O)Nc3cnccc3OC3CCCC3)c(N)nn2c1 [I-O-43, 2-amino-6-(cyanomethyl)-N-(4-(cyclopentyloxy)pyridin-3-yl)pyrazolo[1,5-a]pyrimidine-3-carboxamide]",+++ (Compounds with a Cisplatin sensitization value of <0.02 μM are marked with “+++.”)
29,"Nc1nn2cc(F)cnc2c1C(=O)Nc1cnccc1OC1CCS(=O)(=O)CC1 [I-O-45, 2-amino-N-(4-((1,1-dioxidotetrahydro-2H-thiopyran-4-yl)oxy)pyridin-3-yl)-6-fluoropyrazolo[1,5-a]pyrimidine-3-carboxamide]",+++ (Compounds with a Cisplatin sensitization value of <0.02 μM are marked with “+++.”)
